PubChem BioAssay (NCI)
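Results reflect a 48-hour exposure of cells in 96-well plates to compound at five concentrations. GI50 = concentration required for 50% inhibition of growth. TGI marks complete inhibition of growth.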

Assays:
Assay in all cases: DTP human tumour cell line panel, 48 h; in the data active means GI50 below about 0.43 µM; inactive means the rest
PC-3 prostate = system: PC-3 prostate
COLO 205 colon = system: COLO 205 colon
HCT-116 colon = system: HCT-116 colon
NCI-H460 lung = system: NCI-H460 lung
SK-MEL-28 melanoma = system: SK-MEL-28 melanoma
IGROV1 ovarian = system: IGROV1 ovarian
SF-295 CNS = system: SF-295 CNS
MALME-3M melanoma = system: MALME-3M melanoma
T-47D breast = system: T-47D breast
MDA-MB-435 = system: MDA-MB-435
SF-539 CNS = system: SF-539 CNS
K-562 leukemia = system: K-562 leukemia
RPMI-8226 leukemia = system: RPMI-8226 leukemia
UACC-257 melanoma = system: UACC-257 melanoma
SK-MEL-2 melanoma = system: SK-MEL-2 melanoma
HL-60(TB) leukemia = system: HL-60(TB) leukemia
UO-31 renal = system: UO-31 renal
UACC-62 melanoma = system: UACC-62 melanoma
DU-145 prostate = system: DU-145 prostate
NCI-H226 lung = system: NCI-H226 lung
A549 NSCLC = system: A549 NSCLC
NCI-H522 lung = system: NCI-H522 lung
NCI/ADR-RES ovarian = system: NCI/ADR-RES ovarian
U251 CNS = system: U251 CNS
SK-MEL-5 melanoma = system: SK-MEL-5 melanoma
LOX IMVI melanoma = system: LOX IMVI melanoma
HT29 colon = system: HT29 colon
786-0 renal = system: 786-0 renal
HOP-62 NSCLC = system: HOP-62 NSCLC
NCI-H23 lung = system: NCI-H23 lung
EKVX NSCLC = system: EKVX NSCLC
MOLT-4 leukemia = system: MOLT-4 leukemia
SNB-75 CNS = system: SNB-75 CNS
HOP-92 NSCLC = system: HOP-92 NSCLC
SF-268 CNS = system: SF-268 CNS
KM12 colon = system: KM12 colon
MCF7 breast = system: MCF7 breast
HCT-15 colon = system: HCT-15 colon
SNB-19 CNS = system: SNB-19 CNS
OVCAR-3 ovarian = system: OVCAR-3 ovarian
HS 578T breast = system: HS 578T breast
MDA-MB-231 breast = system: MDA-MB-231 breast
A498 renal = system: A498 renal
M14 melanoma = system: M14 melanoma
ACHN renal = system: ACHN renal
OVCAR-5 ovarian = system: OVCAR-5 ovarian
SW-620 colon = system: SW-620 colon
CAKI-1 renal = system: CAKI-1 renal
HCC-2998 colon = system: HCC-2998 colon
OVCAR-4 ovarian = system: OVCAR-4 ovarian
TK-10 renal = system: TK-10 renal
SN12C renal = system: SN12C renal
CCRF-CEM leukemia = system: CCRF-CEM leukemia
OVCAR-8 ovarian = system: OVCAR-8 ovarian
RXF 393 renal = system: RXF 393 renal
SR leukemia = system: SR leukemia
SK-OV-3 ovarian = system: SK-OV-3 ovarian

CCOc1ccccc1NC(=O)c1cc2ccccc2cc1O
9.55 µM: TGI (UACC-62 melanoma)
11.2 µM: TGI (LOX IMVI melanoma)
9.13 µM: TGI (786-0 renal)
7.14 µM: TGI (HS 578T breast)
3.7 µM: TGI (SK-MEL-5 melanoma)
10.2 µM: TGI (MALME-3M melanoma)
20.2 µM: TGI (SK-MEL-28 melanoma)
15.8 µM: TGI (SF-539 CNS) | TGI (SNB-75 CNS)
9.46 µM: TGI (SF-295 CNS)
38.7 µM: TGI (IGROV1 ovarian)
15.6 µM: TGI (HCT-15 colon) | TGI (HCC-2998 colon)
10.1 µM: TGI (PC-3 prostate)
13.1 µM: TGI (MCF7 breast)
11 µM: TGI (M14 melanoma)
19.6 µM: TGI (OVCAR-4 ovarian)
7.03 µM: TGI (NCI-H460 lung)
8.98 µM: TGI (OVCAR-3 ovarian)
5.98 µM: TGI (UACC-257 melanoma)
inactive: GI50 (PC-3 prostate) 2.73 µM | GI50 (COLO 205 colon) 12.7 µM | GI50 (HCT-116 colon) 2.88 µM | GI50 (NCI-H460 lung) 2.94 µM | GI50 (SK-MEL-28 melanoma) 4.91 µM | GI50 (IGROV1 ovarian) 4.66 µM | GI50 (SF-295 CNS) 2.84 µM | GI50 (MALME-3M melanoma) 2.3 µM | GI50 (T-47D breast) 2.67 µM | GI50 (MDA-MB-435) 2.38 µM | GI50 (SF-539 CNS) 3.05 µM | GI50 (K-562 leukemia) 3.28 µM | GI50 (RPMI-8226 leukemia) 2.04 µM | GI50 (UACC-257 melanoma) 2.23 µM | GI50 (SK-MEL-2 melanoma) 2.42 µM | GI50 (HL-60(TB) leukemia) 2.31 µM | GI50 (UO-31 renal) 2.81 µM | GI50 (UACC-62 melanoma) 2.18 µM | GI50 (DU-145 prostate) 3.71 µM | GI50 (NCI-H226 lung) 2.81 µM | GI50 (A549 NSCLC) 3.19 µM | GI50 (NCI-H522 lung) 2.22 µM | GI50 (NCI/ADR-RES ovarian) 3.13 µM | GI50 (U251 CNS) 3.11 µM | GI50 (SK-MEL-5 melanoma) 1.82 µM | GI50 (LOX IMVI melanoma) 3.28 µM | GI50 (HT29 colon) 8.35 µM | GI50 (786-0 renal) 3.34 µM | GI50 (HOP-62 NSCLC) 3.32 µM | GI50 (NCI-H23 lung) 2.59 µM | GI50 (EKVX NSCLC) 2.67 µM | GI50 (MOLT-4 leukemia) 2.72 µM | GI50 (SNB-75 CNS) 2.89 µM | GI50 (HOP-92 NSCLC) 1.72 µM | GI50 (SF-268 CNS) 3.91 µM | GI50 (KM12 colon) 2.59 µM | GI50 (MCF7 breast) 2.49 µM | GI50 (HCT-15 colon) 3.27 µM | GI50 (SNB-19 CNS) 4.28 µM | GI50 (OVCAR-3 ovarian) 3.16 µM | GI50 (HS 578T breast) 2.85 µM | GI50 (MDA-MB-231 breast) 2.02 µM | GI50 (A498 renal) 2.16 µM | GI50 (M14 melanoma) 3.15 µM | GI50 (ACHN renal) 2.96 µM | GI50 (OVCAR-5 ovarian) 7.06 µM | GI50 (SW-620 colon) 3.67 µM | GI50 (CAKI-1 renal) 3.45 µM | GI50 (HCC-2998 colon) 4 µM | GI50 (OVCAR-4 ovarian) 3.69 µM | GI50 (TK-10 renal) 4.08 µM | GI50 (SN12C renal) 2.64 µM | GI50 (CCRF-CEM leukemia) 2.58 µM | GI50 (OVCAR-8 ovarian) 3.16 µM | GI50 (RXF 393 renal) 2.63 µM
9.24 µM: TGI (SN12C renal)
5.47 µM: TGI (SK-MEL-2 melanoma) | TGI (HL-60(TB) leukemia)
16.7 µM: TGI (HOP-62 NSCLC)
7.62 µM: TGI (RXF 393 renal)
12.6 µM: TGI (SW-620 colon) | TGI (CAKI-1 renal)
7.15 µM: TGI (KM12 colon)
8.02 µM: TGI (HCT-116 colon)
11.3 µM: TGI (EKVX NSCLC) | TGI (OVCAR-8 ovarian)
9.45 µM: TGI (NCI-H23 lung)
32.9 µM: TGI (CCRF-CEM leukemia)
10.3 µM: TGI (ACHN renal) | TGI (TK-10 renal)
25.1 µM: TGI (SNB-19 CNS)
7.08 µM: TGI (MDA-MB-435)
27.7 µM: TGI (OVCAR-5 ovarian)
6.56 µM: TGI (RPMI-8226 leukemia)
25.4 µM: TGI (HT29 colon)
7.17 µM: TGI (MOLT-4 leukemia)
5.55 µM: TGI (A498 renal)
20.4 µM: TGI (SF-268 CNS)
14.2 µM: TGI (NCI/ADR-RES ovarian)
10.8 µM: TGI (NCI-H226 lung)
14.5 µM: TGI (T-47D breast) | TGI (DU-145 prostate)
11.6 µM: TGI (A549 NSCLC) | TGI (U251 CNS)
12.5 µM: TGI (UO-31 renal)
5.08 µM: TGI (HOP-92 NSCLC)
6.9 µM: TGI (NCI-H522 lung)
4.19 µM: TGI (MDA-MB-231 breast)
14.1 µM: TGI (K-562 leukemia)
26.3 µM: TGI (COLO 205 colon)

COP(=O)(Cc1ccc(/C=C/C#N)o1)OC
> 100 µM: TGI (COLO 205 colon) | TGI (HCT-116 colon) | TGI (NCI-H460 lung) | TGI (SK-MEL-28 melanoma) | TGI (IGROV1 ovarian) | TGI (MALME-3M melanoma) | TGI (T-47D breast) | TGI (MDA-MB-435) | TGI (SF-539 CNS) | TGI (K-562 leukemia) | TGI (RPMI-8226 leukemia) | TGI (HL-60(TB) leukemia) | TGI (UACC-62 melanoma) | TGI (DU-145 prostate) | TGI (NCI-H226 lung) | TGI (A549 NSCLC) | TGI (NCI-H522 lung) | TGI (NCI/ADR-RES ovarian) | TGI (U251 CNS) | TGI (HT29 colon) | TGI (786-0 renal) | TGI (HOP-62 NSCLC) | TGI (NCI-H23 lung) | TGI (EKVX NSCLC) | TGI (MOLT-4 leukemia) | TGI (SNB-75 CNS) | TGI (HOP-92 NSCLC) | TGI (SF-268 CNS) | TGI (KM12 colon) | TGI (MCF7 breast) | TGI (HCT-15 colon) | TGI (SNB-19 CNS) | TGI (OVCAR-3 ovarian) | TGI (HS 578T breast) | TGI (MDA-MB-231 breast) | TGI (A498 renal) | TGI (M14 melanoma) | TGI (OVCAR-4 ovarian) | TGI (TK-10 renal) | TGI (CCRF-CEM leukemia) | TGI (OVCAR-8 ovarian) | TGI (SR leukemia) | TGI (SK-OV-3 ovarian) | TGI (RXF 393 renal)
